Assay results: article PMC11851430, “Workflow for E3 Ligase Ligand Validation for PROTAC Development” (ACS Chemical Biology, 2025)

Columns and labels:
Experiment in all cases: TMT-labeled quantitative proteomics
Format in all cases: cell-based
[1] = target: T1, kinase protein levels in MCF-7 cells (Homo sapiens, UniProt A0A0U1RRE5); conditions: protein NBDY; MCF7; 1 µM; set2
T1 construct: endogenous in cells; host or cells: MCF-7
T1 sequence (A0A0U1RRE5 1-68): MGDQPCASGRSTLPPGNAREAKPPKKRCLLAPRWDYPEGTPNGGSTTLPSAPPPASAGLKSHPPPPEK

[2] = target: T2, kinase protein levels in MCF-7 cells (Homo sapiens, UniProt P0DPI2); conditions: protein GATD3; MCF7; 1 µM; set2
T2 construct: endogenous in cells; host or cells: MCF-7
T2 sequence (P0DPI2 42-268): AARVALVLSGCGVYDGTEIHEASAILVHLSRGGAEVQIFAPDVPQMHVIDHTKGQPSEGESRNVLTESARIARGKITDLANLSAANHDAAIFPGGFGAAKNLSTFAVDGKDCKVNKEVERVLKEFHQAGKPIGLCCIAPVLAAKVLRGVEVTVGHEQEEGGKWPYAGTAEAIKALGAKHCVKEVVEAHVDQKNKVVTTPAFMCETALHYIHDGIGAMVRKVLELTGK

[3] = target: T3, kinase protein levels in MCF-7 cells (Homo sapiens, UniProt A0A024RBG1); conditions: protein NUDT4B; MCF7; 1 µM; set2
T3 construct: endogenous in cells; host or cells: MCF-7
T3 sequence (A0A024RBG1 whole entry): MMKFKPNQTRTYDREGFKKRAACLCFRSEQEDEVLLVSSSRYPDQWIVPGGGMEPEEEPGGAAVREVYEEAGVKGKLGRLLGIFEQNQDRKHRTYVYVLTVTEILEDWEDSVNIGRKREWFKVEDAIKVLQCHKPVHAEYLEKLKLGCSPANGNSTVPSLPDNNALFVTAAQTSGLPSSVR

| Compound | P.Value (compound/DMSO) [1] | log2FC (compound/DMSO) [1] | P.Value (compound/DMSO) [2] | log2FC (compound/DMSO) [2] | P.Value (compound/DMSO) [3] | log2FC (compound/DMSO) [3] |
| --- | --- | --- | --- | --- | --- | --- |
| CC(=O)N[C@H](C(=O)N1C[C@H](O)C[C@H]1C(=O)NCc1ccc(-c2scnc2C)cc1OCCOCCOCCOCCNC(=O)c1cc(Nc2cc(C3CC3)[nH]n2)nc(Nc2ccc(CC#N)cc2)n1)C(C)(C)C [5-b] | 0.05637 | -0.3112 | 0.01692 | -0.3786 | 0.01265 | -0.4511 |
| CC(=O)N[C@H](C(=O)N1C[C@H](O)C[C@H]1C(=O)NCc1ccc(-c2scnc2C)cc1OCCOCCOCCOCCOCCC(=O)N1CCN(c2ccc(Nc3ncc(Cl)c(Nc4ccccc4C(N)=O)n3)cc2)CC1)C(C)(C)C [6-e] | 0.09776 | 0.2849 | 0.4778 | 0.0741 | 0.2879 | 0.1111 |
